Data as given in patent publication US20010048946A1, “SOLID PHARMACEUTICAL DOSAGE FORMS IN FORM OF A PARTICULATE DISPERSION” (priority 1997, published 2001).

Columns and labels:
[1] = Dissolution testing, USP apparatus II, 900 mL medium, 37° C., 75 rpm; assay type: physicochemical; conditions: 100 mg CI-991
Method: (0.1 M) Phosphate solution was prepared by dissolving a calculated amount of Na2HPO4 in USP water. The pH-value of the (0.1 M) phosphate solution was then adjusted to 8.0±0.02 by 85% phosphoric acid to give a pH 8 (0.1 M) phosphate buffer. An appropriate amount of SLS was added and dissolved in the pH 8 (0.1 M) phosphate buffer to give the pH 8 (0.1 M) phosphate buffer containing 0.5% (g/mL) SLS.
(0.05 M) Phosphate solution was prepared by mixing 1:1 ratio of the aqueous solutions of (0.025 M) Na2HPO4 and (0.025 M) K2HPO4. The pH value of the (0.05 M) phosphate solution was then adjusted to 9.0±0.02 by 85% phosphoric acid to give the pH 9 (0.05 M) phosphate buffer.
The dissolution studies were conducted in 900 mL of dissolution medium maintained at 37° C., using USP apparatus II (Distek 2100A dissolution system, North Brunswick, N.J.) at 75 rpm of paddle speed. After dispersing a sample containing 100 mg of CI-991 into the dissolution medium, about 10 mL of solutions were periodically sampled and filtered by Gelman Nylon Acrodisc 0.45 μm filters to give clear filtrates (discard the first 2 mL filtrate). The extent of the drug dissolved in the dissolution medium was determined by UV spectrometry at λ=284 nm. Interference by the excipients was not observed during analysis. Experiments were run in duplicate, and the results were averaged.

[2] = gastrointestinal pH range of 1.0 to 7.5; cited from earlier work
[3] = pH 8 (0.1 M) phosphate buffer containing 0.5% SLS

Percent of CI-991 Dissolved in Solution at 5 min [1, 3]: 3.9 ± 0.1% | Percent of CI-991 Dissolved in Solution at 10 min [1, 3]: 6.3 ± 0.1% | Percent of CI-991 Dissolved in Solution at 15 min [1, 3]: 8.2 ± 0.1% | Percent of CI-991 Dissolved in Solution at 5 min ([1]; pH 9 (0.05 M) phosphate buffer): 0.5 ± 0.1% | Percent of CI-991 Dissolved in Solution at 10 min ([1]; pH 9 (0.05 M) phosphate buffer): 0.4 ± 0.1% | Percent of CI-991 Dissolved in Solution at 15 min ([1]; pH 9 (0.05 M) phosphate buffer): 1.2 ± 0.2%
SMILES: Cc1c(C)c2c(c(C)c1O)CCC(C)(COc1ccc(CC3SC(=O)NC3=O)cc1)O2 (stereo not shown) [CI-991 Pure Drug, Troglitazone]
water solubility (in words) [2]: practically water-insoluble
